Legend:
Format in all cases: physicochemical
[1] = Lipid nanoparticle size and polydispersity by dynamic light scattering; conditions: LNP of lipid/DSPC/cholesterol/PEG-lipid 50:10:38.5:1.5 encapsulating hEPO mRNA
Description: (§1) Briefly, a cationic lipid provided herein, DSPC, cholesterol, and PEG-lipid were solubilized in ethanol at a molar ratio of 50:10:38.5:1.5, and mRNA were diluted in 10 to 50 mM citrate buffer, pH=4. The LNPs were prepared at a total lipid to mRNA weight ratio of approximately 10:1 to 30:1 by mixing the ethanolic lipid solution with the aqueous mRNA solution at a volume ratio of 1:3 using a microfluidic apparatus, total flow rate ranging from 9-30 mL/min. Ethanol were thereby removed and replaced by DPBS using dialysis. Finally, the lipid nanoparticles were filtered through a […] sterile filter.
(§2) Lipid nanoparticle size were determined by dynamic light scattering using a Malvern Zetasizer Nano ZS (Malvern UK) using a […] backscatter detection mode. The encapsulation efficiency of lipid nanoparticles were determined using a Quant-it Ribogreen RNA quantification assay kit (Thermo Fisher Scientific, UK) according to the manufacturer's instructions.

[2] = Encapsulation efficiency of lipid nanoparticles, Quant-it Ribogreen RNA assay; conditions: LNP of lipid/DSPC/cholesterol/PEG-lipid 50:10:38.5:1.5 encapsulating hEPO mRNA
Description: as §1, §2

[3] = Apparent pKa of LNP formulations, TNS fluorescence assay; conditions: LNP cationic lipid/DSPC/cholesterol/DMG-PEG 50/10/38.5/1.5 mol %
Description: As reported in literature, the apparent pKa of LNP formulations correlates with the delivery efficiency of LNPs for nucleic acids in vivo. The apparent pKa of each formulation was determined using an assay based on fluorescence of 2-(p-toluidino)-6-napthalene sulfonic acid (TNS). LNP formulations comprising of cationic lipid/DSPC/cholesterol/DMG-PEG (50/10/38.5/1.5 mol %) in PBS were prepared as described above. TNS was prepared as a 300 μM stock solution in distilled water. LNP formulations were diluted to 0.1 mg/mL total lipid in 3 mL of buffered solutions containing 50 mM sodium citrate, 50 mM sodium phosphate, 50 mM sodium borate, and 30 mM sodium chloride where the pH ranged from 3 to 9. An aliquot of the TNS solution was added to give a final concentration of […] and following vortex mixing fluorescence intensity was measured at room temperature in a Molecular Devices Spectramax iD3 spectrometer using excitation and mission wavelengths of 325 nm and 435 nm. A sigmoidal best fit analysis was applied to the fluorescence data and the pKa value was measured as the pH giving rise to half-maximal fluorescent intensity.

| polydispersity [1] | size (nm) [1] | Encapsulation Efficiency [2] | Apparent Pka [3] | SMILES |
| --- | --- | --- | --- | --- |
| 0.131 | 73.33 nm | 93.6% | 6.32 | CCCCCCCCCCCOC(=O)CCCCCN(CCN(CCO)CCCCCC(=O)OCC(CCCCCC)CCCCCCCC)C1CC1 (centres unmarked) [Compound 3] |
| 0.076 | 90.8 nm | 91.9% | 6.709 | CCCCCCCCCCCOC(=O)CCCCCN(CCN(CCO)CCCCCC(=O)OCC(CCCCCC)CCCCCCCC)C1CCC1 (centres unmarked) [Compound 4] |
| 0.073 | 99.12 nm | 92.7% | 6.56 | CCCCCCCCCCCOC(=O)CCCCCN(CCN(CCO)CCCCCC(=O)OCC(CCCCCC)CCCCCCCC)C1CCCC1 (centres unmarked) [Compound 5] |
| 0.06 | 72.78 nm | 96.5% | 6.427 | CCCCCCCCC(CCCCCC)COC(=O)CCCCCN(CCO)CCN(CCCCCC(=O)OCC(CCCCCC)CCCCCCCC)C1CCC1 (centres unmarked) [Compound 7] |
| 0.136 | 65.15 nm | 95.8% | 6.401 | CCCCCCCCC(CCCCCC)COC(=O)CCCCCN(CCO)CCN(CCCCCC(=O)OCC(CCCCCC)CCCCCCCC)C1CCCC1 (centres unmarked) [Compound 8] |
| 0.168 | 70.21 nm | 86.6% | 6.176 | CCCCCCCCC(CCCCCCCC)COC(=O)CCCCCN(CCO)CCN(CCCCCC(=O)OCC(CCCCCCCC)CCCCCCCC)C1CCC1 [Compound 10] |
| 0.062 | 58.17 nm | 89.5% | 6.685 | CCCCCCCCC(CCCCCCCC)CNC(=O)CCCCCN(CCO)CCN(CCCCCC(=O)NCC(CCCCCCCC)CCCCCCCC)C1CCCC1 [Compound 12] |
| 0.105 | 60.71 nm | 83.3% | 6.633 | CCCCCCCCC(CCCCCCCC)CNC(=O)CCCCCN(CCO)CCN(CCCCCC(=O)NCC(CCCCCCCC)CCCCCCCC)C1CCCCC1 [Compound 13] |
| 0.022 | 65.95 nm | 86.0% | 6.724 | CCCCCCCCC(CCCCCCCC)CNC(=O)CCCCCN(CCO)CCN(CCCCCC(=O)OCC(CCCCCCCC)CCCCCCCC)C1CCC1 [Compound 15] |
| 0.035 | 59.48 nm | 99.2% | 6.757 | CCCCCCCCC(CCCCCCCC)CNC(=O)CCCCCN(CCO)CCN(CCCCCC(=O)OCC(CCCCCCCC)CCCCCCCC)C1CCCC1 [Compound 16] |
| 0.033 | 58.8 nm | 98.9% | 6.671 | CCCCCCCCC(CCCCCCCC)CNC(=O)CCCCCN(CCO)CCN(CCCCCC(=O)OCC(CCCCCCCC)CCCCCCCC)C1CCCCCC1 [Compound 17] |
| 0.049 | 56.64 nm | 96.4% | 6.018 | CCCCC/C=C\CCCC(CCC/C=C\CCCCC)COC(=O)CCCCCN(CCO)CCN(CCCCCC(=O)OCC(CCC/C=C\CCCCC)CCC/C=C\CCCCC)C1CCCCC1 [Compound 18] |
| 0.046 | 80.6 nm | 90.2% | 6.269 | CCCCC/C=C\CCCOC(=O)CCCCCN(CCN(CCO)CCCCCC(=O)OCC(CCCCCCCC)CCCCCCCC)C1CCCCC1 [Compound 19] |
| 0.039 | 57.5 nm | 95.5% | 6.686 | CCCCCCCCC(CCCCCCCC)CNC(=O)CCCCCN(CCO)CCN(CCCCCC(=O)OCC(CCCCCCCC)CCCCCCCC)C1CCCCC1 [Compound 23] |
| 0.114 | 57.78 nm | 93.90% | 6.162 | CCCCCCCCC(CCCCCC)COC(=O)CCCCCN(CCO)CCN(CCCCCC(=O)OCC(CCCCCC)CCCCCCCC)C1CCCCCC1 (centres unmarked) [Compound 24] |
| 0.068 | 50.59 nm | 90.67% | 4.853 | CCCCCCCCCCCCCCCCC(CN(CCO)CCN(CC(CCCCCCCCCCCCCCCC)OCCCCCCCC)C1CCC1)OCCCCCCCC (centres unmarked) [Compound 25] |
| 0.13 | 63.47 nm | 97.57% | 7.024 | CCCCCCCCC(CCCCCCCC)COC(=O)CCCCCN(C)CCN(CCO)CCCCCC(=O)OCC(CCCCCCCC)CCCCCCCC [Compound 26] |

| polydispersity [1] | size (nm) [1] | Encapsulation Efficiency [2] | Apparent Pka [3] | SMILES |
| --- | --- | --- | --- | --- |
| 0.118 | 57.08 nm | 95.20% | 6.858 | CCCCCCCCC(CCCCCCCC)COC(=O)CCCCCN(CC)CCN(CCO)CCCCCC(=O)OCC(CCCCCCCC)CCCCCCCC [Compound 27] |
| 0.045 | 62.35 nm | 92.4% | 6.686 | CCCCCCCCC(CCCCCCCC)COC(=O)CCCCCN(CCO)CCN(CCCCCC(=O)OCC(CCCCCCCC)CCCCCCCC)C1CCOCC1 [Compound 28] |
| 0.09 | 59.02 nm | 93.5% | 6.073 | CCCCCCCCC(CCCCCCCC)COC(=O)CCCCCN(CCO)CCN(CCCCCC(=O)OCC(CCCCCCCC)CCCCCCCC)C1CCC(C(F)(F)F)CC1 (centres unmarked) [Compound 29] |
| 0.115 | 53.56 nm | 92.9% | 6.131 | CCCCCCCCC(CCCCCCCC)COC(=O)CCCCCN(CCO)CCN(CCCCCC(=O)OCC(CCCCCCCC)CCCCCCCC)C1CCSCC1 [Compound 30] |
| 0.092 | 54.55 nm | 88.2% | 5.708 | CCCCCCCCC(CCCCCCCC)COC(=O)CCCCCN(CCO)CCN(CCCCCC(=O)OCC(CCCCCCCC)CCCCCCCC)C1CCC(C)(C)CC1 [Compound 31] |
| 0.076 | 76.26 nm | 96.23% |  | CCCCCCCCC(CCCCCCCC)CNC(=O)CCCCCN1CCC(N(CCO)CCCCCC(=O)OCC(CCCCCCCC)CCCCCCCC)CC1 [Compound 171] |
| 0.061 | 69.59 nm | 93.55% |  | CCCCCCCCC(CCCCCCCC)CNC(=O)CCCCCN1CCC(N(CCO)CCCCCC(=O)NCC(CCCCCCCC)CCCCCCCC)CC1 [Compound 172] |
| 0.068 | 61.61 nm | 95.29% |  | CCCCCCCCCCCOC(=O)CCCCCN1CCC(N(CCO)CCCCCC(=O)OCC(CCCCCCCC)CCCCCCCC)CC1 [Compound 173] |
| 0.063 | 78.27 nm | 91.79% |  | CCCCCCCCCCCOC(=O)CCCCCN1CCC(N(CCO)CCCCCCCC(=O)OC(CCCCCCCC)CCCCCCCC)CC1 [Compound 174] |
| 0.123 | 65.70 nm | 95.27% |  | CCCCCCCCCOC(=O)CCCCCCCN(CCO)C1CCN(CCCCCCCC(=O)OC(CCCCCCCC)CCCCCCCC)CC1 [Compound 176] |
|  |  |  | 6.699 | CCCCCCCC(=O)OCC(CCCCN1CCC(N(CCO)CCCCC(COC(=O)CCCCCCC)COC(=O)CCCCCCC)CC1)COC(=O)CCCCCCC [Compound 180] |
| 0.18 | 104.1 nm | 86.33% |  | CCCCCCCCC(CCCCCC)CNC(=O)CCCCCN(CCCCN(CCO)CCCCC(COC(=O)CCCCCCC)COC(=O)CCCCCCC)C1CCCC1 (centres unmarked) [Compound 196] |
| 0.158 | 70.01 nm | 91.45% |  | CCCCCCCCC(CCCCCC)CNC(=O)CCCCCN(CCCCN(CCO)CCCCC(COC(=O)CCCCCCC)COC(=O)CCCCCCC)C1CCCCC1 (centres unmarked) [Compound 197] |
| 0.035 | 112.6 nm | 84.88% |  | CCCCCCCCC(CCCCCC)CNC(=O)CCN(CCO)CCN(CCCCC(COC(=O)CCCCCCC)COC(=O)CCCCCCC)C1CCCCC1 (centres unmarked) [Compound 211] |
| 0.048 | 122.1 nm | 87.31% |  | CCCCCCCCC(CCCCCC)CNC(=O)CCN(CCO)CCN(CCCCC(COC(=O)CCCCCCC)COC(=O)CCCCCCC)C1CCCCCC1 (centres unmarked) [Compound 212] |
| 0.07 | 110.8 nm | 88.38% |  | CCCCCCCCC(CCCCCC)CNC(=O)CCN(CCO)CCN(CCCCC(COC(=O)CCCCCCC)COC(=O)CCCCCCC)C1CCCCCCC1 (centres unmarked) [Compound 213] |
